Test systems include A498 renal; A549 NSCLC; HCT-116 colon; HOP-92 NSCLC; NCI-H522 lung; SK-MEL-28 melanoma; SK-OV-3 ovarian; SNB-19 CNS; UACC-257 melanoma; UACC-62 melanoma.
Common to all, as to test: DTP human tumour cell line panel, 48 h

SMILES strings stand for the structures. Values joined by “and” are separate entries in the source; they are usually repeats but may differ in a detail not shown here. Equal values may be shown once.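 Method: 48-hour compound exposure of cells in 96-well plates, five concentrations, linear interpolation of endpoints. Abbreviation: GI50, concentration required for 50% inhibition of growth. At the TGI there is no net growth.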 Bounds are passed on as bounds.

As usually defined, the GI50 is the concentration at which growth is held to half of that of the control. A word on the TGI: it is the concentration giving total growth inhibition.

`C=C1C(=O)O[C@H]2[C@H]1CC/C(Cn1cc(Cc3c[nH]c4ccccc34)nn1)=C\CC[C@@]1(C)O[C@@H]21`: the GI50 is 3.9 µM in the assay on A498 renal; 8.63 µM in the assay with A549 NSCLC; 1.06 µM in the assay on HCT-116 colon; 2 µM in the assay on HOP-92 NSCLC; 1.43 µM with NCI-H522 lung; 1.66 µM in the assay with SK-MEL-28 melanoma. The GI50 in the assay on SK-OV-3 ovarian is 14.2 µM; with SNB-19 CNS it was 2.55 µM; in the assay with UACC-257 melanoma, 2.11 µM; in the assay on UACC-62 melanoma, 1.66 µM. Further, the total growth inhibition concentration (TGI) in the assay with A498 renal is 14.3 µM; in the assay with A549 NSCLC, 23.5 µM; in the assay with HCT-116 colon it was 2.38 µM; in the assay on HOP-92 NSCLC it was 3.75 µM; in the assay with NCI-H522 lung it was 3 µM; with SK-MEL-28 melanoma it was 3.22 µM. The TGI with SK-OV-3 ovarian was found to be 27.4 µM; in the assay on SNB-19 CNS it was 6.33 µM; in the assay on UACC-257 melanoma it was 4.45 µM; in the assay with UACC-62 melanoma, 3.13 µM.
Turning to `c1ccc2cc(Cn3cc[n+](Cc4ccc5ccccc5c4)c3)ccc2c1`, the GI50 in the assay with A498 renal is 0.0254 µM; in the assay on A549 NSCLC, 7.97 µM; in the assay with HCT-116 colon, 1.97 µM; in the assay with HOP-92 NSCLC, 0.16 µM; with NCI-H522 lung it was 0.393 µM; with SK-MEL-28 melanoma, 1.2 µM. Besides, the GI50 with SK-OV-3 ovarian is 2.15 µM; in the assay on SNB-19 CNS it was 0.979 µM; in the assay with UACC-257 melanoma, 0.587 µM; with UACC-62 melanoma, 0.478 µM. Moreover, the TGI was 4.69 µM with A498 renal; 22.9 µM in the assay on A549 NSCLC; 12.3 µM in the assay with HCT-116 colon; 1.39 µM in the assay with HOP-92 NSCLC; 3.11 µM with NCI-H522 lung; 3.36 µM in the assay on SK-MEL-28 melanoma. Also, the TGI with SK-OV-3 ovarian amounted to 11.1 µM; in the assay with SNB-19 CNS, 6.97 µM; in the assay with UACC-257 melanoma, 2.55 µM; in the assay with UACC-62 melanoma, 1.98 µM.
Turning to `Cc1cc(C(=O)Nc2cc(Oc3ccc4nc(NC(=O)C5CC5)cn4n3)ccc2C)n(C)n1`, the GI50 in the assay with A498 renal was above 10 µM; with A549 NSCLC it was above 10 µM; with HCT-116 colon, 5.66 µM; in the assay on HOP-92 NSCLC it was 3.27 µM; in the assay on NCI-H522 lung, above 10 µM; in the assay with SK-MEL-28 melanoma, above 10 µM. For the same compound, the GI50 in the assay on SK-OV-3 ovarian, with SNB-19 CNS, in the assay on UACC-257 melanoma and in the assay with UACC-62 melanoma was above 10 µM throughout. For the same compound, the TGI in the assay with A498 renal, in the assay on A549 NSCLC, in the assay with HCT-116 colon, in the assay with HOP-92 NSCLC, in the assay with NCI-H522 lung and with SK-MEL-28 melanoma was above 10 µM in each case. Moreover, the concentration for total growth inhibition (TGI) in the assay with SK-OV-3 ovarian, with SNB-19 CNS, in the assay with UACC-257 melanoma and with UACC-62 melanoma was above 10 µM throughout.
As for `COC12C=C/C(=C(/C(=O)OCCSc3ccnn3C)C(=O)CCCCCCCCC3(OC)C=C/C(=C(/C(=O)OCCSc4ccnn4C)C(=O)CCCCCCCC1)O3)O2`, the GI50 with A498 renal was 0.645 µM; in the assay with A549 NSCLC it was 0.882 µM; in the assay on HCT-116 colon, 0.66 µM; in the assay with HOP-92 NSCLC it was 0.847 µM; in the assay on NCI-H522 lung, 0.648 µM; with SK-MEL-28 melanoma it was 1.09 µM. The GI50 in the assay on SK-OV-3 ovarian was 1.66 µM; in the assay with SNB-19 CNS it was 1.88 µM; with UACC-257 melanoma, 1.35 µM; in the assay on UACC-62 melanoma, 0.716 µM. Further, the total growth inhibition concentration (TGI) was determined as 2.2 µM in the assay with A498 renal; 2.66 µM in the assay on A549 NSCLC; 1.37 µM with HCT-116 colon; 2.55 µM with HOP-92 NSCLC; 1.62 µM in the assay on NCI-H522 lung; 8.24 µM with SK-MEL-28 melanoma. For the same compound, the TGI was 24.9 µM with SK-OV-3 ovarian, above 32.5 µM with SNB-19 CNS, 11.4 µM with UACC-257 melanoma and 1.85 µM in the assay on UACC-62 melanoma.
For the compound `c1cc(CN2CCCNCCNCCCNCC2)ccc1CN1CCCNCCNCCCNCC1`, the GI50 in the assay on A498 renal, with A549 NSCLC, in the assay on HCT-116 colon, with HOP-92 NSCLC, in the assay with NCI-H522 lung and in the assay on SK-MEL-28 melanoma was above 100 µM each time. Moreover, the GI50 with SK-OV-3 ovarian, in the assay on SNB-19 CNS, in the assay on UACC-257 melanoma and in the assay with UACC-62 melanoma was above 100 µM throughout. Further, the TGI in the assay on A498 renal, in the assay with A549 NSCLC, in the assay with HCT-116 colon, in the assay with HOP-92 NSCLC, with NCI-H522 lung and with SK-MEL-28 melanoma was above 100 µM throughout. Besides, the TGI in the assay on SK-OV-3 ovarian, in the assay with SNB-19 CNS, in the assay on UACC-257 melanoma and in the assay on UACC-62 melanoma was above 100 µM in each case.
Take `COC1CC(C)C(OC)c2cc(O)cc(c2O)NC(=O)/C(C)=C/C=C\C(C)C(OC(N)=O)/C(C)=C\C(C)C1OC` (stereo not given): the GI50 in the assay on A498 renal was 18.4 µM; with A549 NSCLC it was 0.435 µM and 1.84 µM; in the assay with HCT-116 colon, 0.0642 µM and 0.571 µM; in the assay on HOP-92 NSCLC, 0.234 µM; with NCI-H522 lung, 0.0575 µM and 0.0989 µM; in the assay on SK-MEL-28 melanoma it was 0.291 µM. The GI50 in the assay on SK-OV-3 ovarian is 0.171 µM; with SNB-19 CNS, 0.649 µM; with UACC-257 melanoma, 0.561 µM and 0.693 µM; with UACC-62 melanoma, 0.162 µM. Also, the TGI with A498 renal was 38.1 µM and 14.8 µM; in the assay on A549 NSCLC it was 27.6 µM and 21.1 µM; with HCT-116 colon, 8.1 µM and 9.01 µM; in the assay with HOP-92 NSCLC, 12.1 µM and 2.79 µM; in the assay on NCI-H522 lung, 0.683 µM and 0.913 µM; in the assay with SK-MEL-28 melanoma it was 6.89 µM and 9.62 µM. Also, the TGI is 8.02 µM and 14.7 µM with SK-OV-3 ovarian; 23.7 µM and 72.3 µM with SNB-19 CNS; 10.3 µM and 10.5 µM in the assay on UACC-257 melanoma; 8.89 µM and 5.83 µM with UACC-62 melanoma.
Take `COc1cccc(Sc2ccc([N+](=O)[O-])c3no[n+]([O-])c23)c1`: the GI50 in the assay on A498 renal is 15.7 µM; with A549 NSCLC, 36.1 µM; with HCT-116 colon, 3.7 µM; in the assay on HOP-92 NSCLC, 15.5 µM; in the assay on NCI-H522 lung it was 1.98 µM; in the assay on SK-MEL-28 melanoma it was 6.52 µM. In addition, the GI50 in the assay with SK-OV-3 ovarian is 29.8 µM; in the assay with SNB-19 CNS, 35 µM; in the assay with UACC-257 melanoma, 14 µM; in the assay with UACC-62 melanoma, 13.7 µM. The TGI in the assay on A498 renal is 34.6 µM; in the assay with A549 NSCLC it was above 100 µM; with HCT-116 colon, 14.4 µM; in the assay on HOP-92 NSCLC it was 32.7 µM; in the assay on NCI-H522 lung it was 3.93 µM; in the assay on SK-MEL-28 melanoma it was 14 µM. Also, the TGI in the assay with SK-OV-3 ovarian was above 77.7 µM; with SNB-19 CNS, above 88.3 µM; in the assay on UACC-257 melanoma it was 29.9 µM; with UACC-62 melanoma it was 36 µM.

The values above are taken from PubChem BioAssay (NCI).
